The values that follow come from patent US6255323A, “Cyanoguanidine compounds” (Shionogi Bioresearch Corp., priority 2000, dated 2001).

The test system of series [1] is Non-Hodgkin's B cell lymphoma (RL) tumor. Briefly: RL human tumor xenograft regression assay. Conditions: for gross toxicity: 2780 75, 2889 90, 2897 75, 2900 60, 2727 60 mg/kg (2727: reduced to once per day); for tumor regression: within the first two weeks of dosing, IV morning + IP afternoon, 2780 75, 2889 90, 2897 75, 2900 60, 2727 60 mg/kg; for average tumor volume, % of tumor volume obtained in the control: Day 21, 75 mg/kg. The format is in vivo, human tumor in female NIH Swiss nude mice. As to the method: The antitumor activity of a cyanoguanidine compound of this invention can also be evaluated by in vivo testing, e.g., human tumor xenograft regression assays. Animals bearing established tumors are treated with a test compound for a three-week period. The growth of the tumors and the general health of the animal are monitored during the three-week treatment and for two more weeks after treatment to determine if tumor regrowth occurs. See Example 150 below.
(§1) From the in vitro results obtained, cyanoguanidine compounds were selected for human tumor xenograft regression assays. Animals bearing established tumors (RL) were treated with a test compound for a three-week period. The growth of the tumors and the general health of the animals were monitored during the treatment and for an additional two weeks after dosing had been terminated to determine if tumor regrowth took place.
(§2) Non-Hodgkin's B cell lymphoma (RL) tumor cells, which were adapted to grow as solid tumors, were implanted by an intradermal injection of a tumor cell suspension (30×10^6 cells in 0. 1 mL media) in the flanks of female NIH Swiss nude mice (Taconic Labs). Each mouse was implanted with one tumor and 6-8 mice per group were used.
(§3) Dosing was initiated one week after implantation (Day 1), when tumors reached approximately 50 to 100 mm^3 in volume, with a test compound or vehicle five times per week for three weeks either intravenously (IV) or intraperitoneally (IP). Cyclophosphamide (CTX, Sigma) was used as a standard in the assays. Compounds were first dissolved in DMSO (Sigma) and formulated with 20% Cremophor RH40 (BASF) to a final concentration of 10% DMSO/18% Cremophor. The formulated solution was made fresh daily.
(§4) Tumors, assumed to be hemi-ellipsoid in shape, were measured with calipers in three dimensions. Tumor volumes were calculated using the equation:
(§5) where L=length, W=width, and H=height of the tumor. Animals were weighed and their general health was monitored during the course of the assay. When tumors became necrotic or if animals became moribund, the animals were euthanized by CO2 asphyxiation. Student's t test was used to determine if there was a significant difference between the data obtained in the compound treated group and the vehicle treated group.
In a preliminary RL tumor growth regression assay, eight compounds were administered twice a day (via IV route in the morning and IP route in the afternoon) for five days per week for a three-week period. […] For comparison, cyclophosphamide, reduced the average tumor volume to 2% of control by Day 18. […] Compounds SBR-11-2899 (75 mg/kg), SBR-11-2750 (75 mg/kg), and SBR-11-2749 (75 mg/kg) reduced the average tumor volume to 10%, 14%, and 18% of the tumor volume obtained in the control on Day 21, respectively. One compound, SBR-11-4483 (60 mg/kg) was administered once per day (via IV route) for a two-week period. By day 19, a reduction of the average tumor volume to 1% was observed.
(In general: Xenograft models place foreign cells or tissue in a host animal.)

Series [2] has the same test system. The experiment in a line: RL tumor growth regression assay, dose dependence. The format is in vivo. Conditions: for weight loss: all mice except one CTX-treated mouse; for effect on tumor volume (in words): three doses. As to the method: as §1, §2, §3, §4, §5
The ability of compounds to act in a dose dependent manner was assayed in an RL tumor growth regression assay using compounds SBR-11-2897 and SBR-11-2780.

For series [3], the system named is tumor cell line (PC-3) versus normal cell line (CV-1). Briefly: Tumor cell selectivity: IC50 normal cell line (CV-1) versus tumor cell line (PC-3). The format is cell-based, human (PC-3); monkey (CV-1, transformed monkey kidney cells). Conditions: CV-1 normal cell line vs PC-3 tumor cell line. As to the method:
The antitumor activity of a cyanoguanidine compound of this invention can be evaluated by MTS colorimetric assay (see Example 149 below). Results obtained by using cell lines of various types of tumors are compared with those obtained by using cell lines of normal cells in this assay. Viability of the cells in each cell line is estimated by measuring the cellular conversion of a tetrazolium salt after incubating the cells in a solution containing a test cyanoguanidine compound in a 96 well plate. IC50 values obtained by using an identical test compound on normal cells and cells of a particular tumor cell line are compared and their ratio (IC50 normal cell /IC50 cancer cell) indicates the cancer selectivity of that test compound. The higher the ratio, the higher the selectivity of the test compound towards that particular type of cancer cell.
In the secondary screening, IC50 values were determined. Cells were seeded at a low cell density in 96 well flat-bottom plates and incubated for 24 hours at 37° C. in a 7% CO2 atmosphere. […]

[4] abbreviates: twice a day IV + IP, 5 days/week, 3 weeks.
Where [5] appears, read: twice a day IV + IP, 5 days/week, 3 weeks, 2780 75, 2889 90, 2897 75, 2900 60 mg/kg.

In the case of `N#CN=C(NCc1ccc(NC(=O)C2c3ccccc3-c3ccccc32)cc1)Nc1ccncc1` [SBR-11-2727, 9H-fluorene-9-carboxylic acid (4-(N'-cyano-N"-pyridin-4-yl-guanidinomethyl)-phenyl)-amide], the gross toxicity entry in series [1] (setting [4]) is “signs of gross toxicity within the first week”. In addition, the tumor regression result in series [1] (5 days/week) is recorded as “completely regressed all tumors”.

For the compound `COc1ccc2cc(C(C)C(=O)Nc3ccc(CNC(=NC#N)Nc4ccncc4)cc3)ccc2c1` (stereo not shown) [SBR-11-2749, 2-(6-Methoxy-naphthalen-2-yl)-N-(4-(N'-cyano-N"-pyridin-4-yl-guanidinomethyl)-phenyl)-propionamide], the “average tumor volume, % of tumor volume obtained in the control” value (shortened to “average tumor volume, % … in the control”) in series [1] (twice a day IV + IP) was found to be 18%.

`N#CN=C(NCc1ccc(NC(=O)c2ccccc2Cc2ccccc2)cc1)Nc1ccncc1` [SBR-11-2750, 2-Benzyl-N-(4-(N'-cyano-N"-pyridin-4-yl-guanidinomethyl)-phenyl)-benzamide]: the “average tumor volume, % … in the control” value in series [1] (twice a day IV + IP) came to 14%.

Turning to `Cc1c(C)c2c(c(C)c1O)CCC(C)(C(=O)Nc1ccc(CNC(=NC#N)Nc3ccncc3)cc1)O2` (stereo not shown) [SBR-11-2780, 6-Hydroxy-2,5,7,8-tetramethyl-chroman-2-carboxylic acid (4-(N'-cyano-N"-pyridin-4-yl-guanidinomethyl)-phenyl)-amide], the results for the “average tumor volume, % of control group” value in series [2] (20 mg/kg), in series [2] (40 mg/kg) and in series [2] (80 mg/kg) were 86%, 24% and 3%, respectively. In addition, the weight loss entry in series [2] was “Less than 10%”; in series [1] (setting [5]) it was “less than 10%”. Moreover, the “effect on tumor volume (in words)” value in series [2] is given as “dose dependent effect”. Also, in series [1] (setting [4]), the gross toxicity result is given as “little gross toxicity”. Moreover, the tumor regression entry in series [1] (5 days/week) was “completely regressed all tumors”.

In the case of `Cc1cc(C)c(S(=O)(=O)Nc2ccc(CNC(=NC#N)Nc3ccncc3)cc2)c(C)c1` [SBR-11-2889, 2,4,6-Trimethyl-N-(4-(N'-cyano-N"-pyridin-4-yl-guanidinomethyl)-phenyl)-benzenesulfonamide], the weight loss entry in series [1] (setting [5]) was “less than 10%”. Besides, the gross toxicity entry in series [1] (setting [4]) is “little gross toxicity”. Moreover, the tumor regression entry in series [1] (5 days/week) is listed as “completely regressed all tumors”.

Regarding `CN(C)c1cccc2c(S(=O)(=O)Nc3ccc(CNC(=NC#N)Nc4ccncc4)cc3)cccc12` [SBR-11-2897, 5-Dimethylamino-naphthalene-1-sulfonic acid (4-(N'-cyano-N"-pyridin-4-yl-guanidinomethyl)-phenyl)-amide], in series [2], the weight loss result was “Less than 10%” and the “effect on tumor volume (in words)” value is given as “almost complete reduction of average tumor volumes”. Moreover, the weight loss entry in series [1] (setting [5]) was “less than 10%”. The gross toxicity result in series [1] (setting [4]) is “little gross toxicity”. The tumor regression entry in series [1] (5 days/week) is given as “completely regressed all tumors”.

On to `N#CN=C(NCc1ccc(NS(=O)(=O)c2cccc(C(F)(F)F)c2)cc1)Nc1ccncc1` [SBR-11-2899, N-(4-(N'-Cyano-N"-pyridin-4-yl-guanidinomethyl)-phenyl)-3-trifluoromethyl-benzenesulfonamide], for which the “average tumor volume, % … in the control” value in series [1] (twice a day IV + IP) came to 10%.

Take `N#CN=C(NCc1ccc(NS(=O)(=O)c2cccc3ccccc23)cc1)Nc1ccncc1` [SBR-11-2900, Naphthalene-1-sulfonic acid (4-(N'-cyano-N"-pyridin-4-yl-guanidinomethyl)-phenyl)-amide]: the weight loss result in series [1] (setting [5]) is given as “less than 10%”. For the same compound, the gross toxicity entry in series [1] (setting [4]) is recorded as “little gross toxicity”. Also, the tumor regression result in series [1] (5 days/week) is “completely regressed all tumors”.

Regarding `N#CNC(=Nc1ccncc1)NCCN1CCC(OC(c2ccccc2)c2ccccc2)CC1` [SBR-11-4483, N-[2-(4-Benzhydryloxy-piperidin-1-yl)-ethyl]-N'-cyano-N"-pyridin-4-yl-guanidine], in series [1] (60 mg/kg once per day IV, two weeks), the weight loss result is “less than 10%”. Besides, the “reduction of the average tumor volume to” value in series [1] (by day 19, 60 mg/kg once per day IV, two weeks) is given as 1%.

On to `CC(=O)O[C@H]1C(=O)[C@@]2(C)[C@H]([C@H](OC(=O)c3ccccc3)[C@]3(O)C[C@H](OC(=O)[C@H](O)[C@@H](NC(=O)c4ccccc4)c4ccccc4)C(C)=C1C3(C)C)[C@]1(OC(C)=O)CO[C@@H]1C[C@@H]2O` [Taxol], for which the “selectivity of tumor cells (IC50 normal cell /IC50 cancer cell)” value in series [3] worked out at 20 fold.

As to `O=P1(N(CCCl)CCCl)NCCCO1` (stereo not shown) [cyclophosphamide, Cyclophosphamide, reference compound], the “average tumor volume, % of control” value in series [1] (by Day 18, cyclophosphamide standard) is 2%.
